Data as given in ChEMBL document CHEMBL1153535, “Nitazoxanide kills replicating and nonreplicating Mycobacterium tuberculosis and evades resistance” (J Med Chem, 2009).
Converted amounts (≈) assume the structure as drawn.

Experiments:
[1] = system: Mycobacterium tuberculosis; experiment: Antimycobacterial activity against Mycobacterium tuberculosis H37Rv in 7H9 liquid medium after 7 days; assay type: functional; settings: 168 h
[2] = system: Mycobacterium tuberculosis; experiment: Antimycobacterial activity against Mycobacterium tuberculosis H37Rv in 7H11 solid medium after 7 days; assay type: functional; settings: 168 h
[3] = system: Mycobacterium tuberculosis; experiment: Antimycobacterial activity against replicating Mycobacterium tuberculosis H37Rv at 125 ug/mL assessed as reduction of log10CFU/mL after 4 days relative to control; assay type: functional
[4] = system: Mycobacterium tuberculosis; experiment: Antimycobacterial activity against non-replicating Mycobacterium tuberculosis H37Rv at 125 ug/mL assessed as reduction of log10CFU/mL after 4 days relative to control; assay type: functional
[5] = system: Mycobacterium tuberculosis; experiment: Antimycobacterial activity against replicating Mycobacterium tuberculosis H37Rv at 62 ug/mL assessed as reduction of log10CFU/mL; assay type: functional, organism-based; settings: TDE = time-dependent effect
[6] = system: Mycobacterium tuberculosis; experiment: Antimycobacterial activity against replicating Mycobacterium tuberculosis H37Rv at 62 ug/mL assessed as reduction of log10CFU/mL after 4 days; assay type: functional
[7] = system: Mycobacterium tuberculosis; experiment: Antimycobacterial activity against replicating Mycobacterium tuberculosis H37Rv at 62 ug/mL assessed as reduction of log10CFU/mL after 10 days; assay type: functional
[8] = system: Mycobacterium tuberculosis; experiment: Antimycobacterial activity against non-replicating Mycobacterium tuberculosis H37Rv at 62 ug/mL assessed as reduction of log10CFU/mL after 6 days relative to control; assay type: functional
[9] = system: Mycobacterium tuberculosis; experiment: Antimycobacterial activity against Mycobacterium tuberculosis H37Rv after 8 days in presence of 0.04 to 5 mg/mL of BSA; assay type: functional; settings: 192 h
[10] = system: Mycobacterium tuberculosis; experiment: Antimycobacterial activity against Mycobacterium tuberculosis H37Rv after 8 days in absence of BSA; assay type: functional; settings: 192 h
Giardia = experiment: Antimicrobial activity against Giardia; assay type: functional, organism-based
Cryptosporidium = experiment: Antimicrobial activity against Cryptosporidium; assay type: functional
[11] = Cmax in human plasma at 500 mg, po; assay type: ADME, organism-based; parameters: dose 500 mg, route oral

SMILES	MIC [1]	MIC [2]	Activity [3]	Activity [4]	Activity [5]	Activity [6]	Activity [7]	Activity [8]	MIC [9]	MIC [10]	IC50 (Giardia)	MIC (Cryptosporidium)	Cmax [11]
CC(=O)Oc1ccccc1C(=O)Nc1ncc([N+](=O)[O-])s1 [NITAZOXANIDE]	16 µg/mL (≈ 52.1 µM)	16 µg/mL (≈ 52.1 µM)	2	6	tde	1	3.5	>=5	16 µg/mL	1 µg/mL (≈ 3.25 µM)	2.5 µg/mL (≈ 8.14 µM)	10 µg/mL (≈ 32.5 µM)	–
O=C(Nc1ncc([N+](=O)[O-])s1)c1ccccc1O [TIZOXANIDE]	16 µg/mL (≈ 60.3 µM)	–	–	–	–	–	–	–	–	–	–	–	10600 ng/mL
